Reference: patent publication US20220080016A1, “Antioxidant, Antibacterial Or Anti-Inflammatory Pharmaceutical Composition Containing Scutellaria Baicalensis Extract And Magnolia Officinalis Extract As Active Ingredients” (Genogen Co.,Ltd., priority 2020, published 2022)
Values after ≈ are worked out from the molar mass of the structure shown.

Assay: DPPH radical scavenging assay
Assay type: biochemical
Conditions: DPPH radical scavenging activity in 30 minutes
Experimental: FIGS. 4A through 4D show lipid peroxidation and DPPH (1,1-diphenyl-2-picrylhydrazyl) analysis result which were obtained by measuring the antioxidant activity of Comparative Example 1 (SBR), Comparative Example 2 (MOB) and Present Example 1 (GenoTX-407). […] As shown in the upper left graph of FIG. 4, after exposure to FeCl3 (50 μM), TBARS (thiobarbituric acid reactive substances) level increased (74%).

- EC50, DPPH: 14.38 µg/mL (≈ 81.6 µM)
Structure (SMILES): O=C1O[C@H]([C@@H](O)CO)C(O)=C1O [ascorbic acid]
